Experimental findings from patent US7838674B2, “Tetracyclic lactame derivatives” (Novartis AG, priority 2007, dated 2010) are described below.

In general, IC50 refers to the midpoint of a concentration-inhibition curve.

Where a name gives a salt, the structure may show the parent alone. Bounds are passed on as bounds.

The target of the first test is T1, MAPKAPK2 enzyme (HIS-MK2, Invitrogen PV4019) (Homo sapiens, UniProt P49137).
T1 construct: His; purchased Invitrogen PV4019
T1 sequence (P49137 whole entry): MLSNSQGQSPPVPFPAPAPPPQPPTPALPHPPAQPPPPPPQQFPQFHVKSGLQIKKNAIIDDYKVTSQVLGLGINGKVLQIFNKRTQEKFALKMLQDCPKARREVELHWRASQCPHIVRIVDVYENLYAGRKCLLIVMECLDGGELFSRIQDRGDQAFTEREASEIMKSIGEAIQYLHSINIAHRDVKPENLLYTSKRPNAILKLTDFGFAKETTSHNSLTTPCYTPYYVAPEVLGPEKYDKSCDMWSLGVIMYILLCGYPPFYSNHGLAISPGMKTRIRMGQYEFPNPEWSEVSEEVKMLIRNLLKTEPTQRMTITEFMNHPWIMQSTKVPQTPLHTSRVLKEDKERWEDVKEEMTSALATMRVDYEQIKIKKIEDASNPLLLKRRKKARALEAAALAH
As to the kind of experiment: Alternative MAPKAPK2 assay (Caliper microfluidic mobility shift, HSP27-peptide). In kind it is biochemical. Conditions: HIS-MK2 0.013 nM, ATP 10 μM, 60 min at 30° C.
As for `COc1cncc(-c2cc3c(cn2)CCc2c-3[nH]c3c2C(=O)NC2(CCC2)C3)c1` [Example 99, 2-(1-Amino-cyclobutylmethyl)-8-(5-methoxy-pyridin-3-yl)-4,5-dihydro-1H-pyrrolo[2,3-f]isoquinoline-3-carboxylic acid lactam], the IC50 worked out at 72 nM.
Still for that read-out and setting: the figure for `Cc1ccc(-c2cc3c(cn2)CCc2c-3[nH]c3c2C(=O)NC2(CCC2)C3)cn1` [Example 103, 2-(1-Amino-cyclobutylmethyl)-8-(6-methyl-pyridin-3-yl)-4,5-dihydro-1H-pyrrolo[2,3-f]isoquinoline-3-carboxylic acid lactam] is 57 nM.
Same read-out and setting: the figure for `CC(C)Oc1ccc(-c2cc3c(cn2)CCc2c-3[nH]c3c2C(=O)NCC32CN(C)C2)cn1` [Example 185, 2-(3-Aminomethyl-1-methyl-azetidin-3-yl)-8-(6-isopropoxy-pyridin-3-yl)-4,5-dihydro-1H-pyrrolo[2,3-f]isoquinoline-3-carboxylic acid lactam hydrochloride] is < 3 nM.
The same measure, in the same setting: the figure for `CN(C)CCOc1cc(-c2cc3c(cn2)CCc2c-3[nH]c3c2C(=O)NCC32CC2)ccc1F` [Example 311, 2-[3-(2-Dimethylamino-ethoxy)-4-fluoro-phenyl]-10-spirocyclopropyl-5,6,8,9,10,11-hexahydro-3,8,11-triaza-benzo[a]fluoren-7-one] is 27 nM; for `N#Cc1cc(-c2cc3c(cn2)CCc2c-3[nH]c3c2C(=O)NCC32CC2)ccc1N1CCC(O)C1` (centres unmarked) [Example 312, 2-(3-Hydroxy-pyrrolidin-1-yl)-10-spirocyclopropyl-5-(7-oxo-6,7,8,9,10,11-hexahydro-5H-3,8,11-triaza-benzo[a]fluoren-2-yl)-benzonitrile] it is 15 nM.

For a further test, the system named is TNF-α release from hPBMCs. Kind of test: Assay for inhibition of TNF-α release from hPBMCs (IFNγ/LPS stimulated). It is filed as cell-based. The conditions noted are these: Homo sapiens, IFNγ (10 ng/ml) and LPS (5 μg/ml), 3 h. The method, then:
Assay for Inhibition of TNF-α Release from hPBMCs
Human peripheral blood mononuclear cells (hPBMCs) are prepared from the peripheral blood of healthy volunteers using Ficoll-Plaque Plus (Amersham) density separation according to the method described within. Cells are seeded at a 1×10^5 cells/well in 96-well plates in RPMI 1640 medium (Invitrogen) containing 10% (v/v) fetal calf serum (FCS). Cells are pre-incubated with serial dilutions of test compound (0.25% v/v DMSO final) for 30 min at 37° C. Cells are stimulated with the addition of IFNγ (10 ng/ml) and lipopolysaccharide(LPS) (5 μg/ml) per well and incubated for 3 h at 37° C. Following a brief centrifugation (250×g for 2 min), supernatant (10 μl) samples are taken from each well and measured against a TNFα calibration curve using a HTRF TNFα kit (CisBio) as described within.
Using the TNF-α release assay described above, compounds of the formula I can be shown to have the following inhibition values: […]
For `COc1ccc(-c2cc3c(cn2)CCc2c-3[nH]c3c2C(=O)NC2(CC2)C3)cc1` [Example 40, 2-(1-Amino-cyclopropylmethyl)-8-(4-methoxy-phenyl)-4,5-dihydro-1H-pyrrolo[2,3-f]isoquinoline-3-carboxylic acid lactam], half-maximal inhibition (IC50) required 220 nM.
The same measure, in the same setting: the figure for `COc1cncc(-c2cc3c(cn2)CCc2c-3[nH]c3c2C(=O)NC2(CCC2)C3)c1` [Example 99, 2-(1-Amino-cyclobutylmethyl)-8-(5-methoxy-pyridin-3-yl)-4,5-dihydro-1H-pyrrolo[2,3-f]isoquinoline-3-carboxylic acid lactam] is 311 nM; for `Cc1ccc(-c2cc3c(cn2)CCc2c-3[nH]c3c2C(=O)NC2(CCC2)C3)cn1` [Example 103, 2-(1-Amino-cyclobutylmethyl)-8-(6-methyl-pyridin-3-yl)-4,5-dihydro-1H-pyrrolo[2,3-f]isoquinoline-3-carboxylic acid lactam] it is 336 nM; for `N#Cc1ccc(-c2cc3c(cn2)CCc2c-3[nH]c3c2C(=O)NCC32CC2)cn1` [Example 127, 2-(1-Aminomethyl-cyclopropyl)-8-(6-cyano-pyridin-3-yl)-4,5-dihydro-1H-pyrrolo[2,3-f]isoquinoline-3-carboxylic acid lactam] it is 264 nM.
Same read-out and setting: the figure for `CN1CC2(CNC(=O)c3c2[nH]c2c3CCc3cnc(-c4ccccc4F)cc3-2)C1` [Example 172, 2-(3-Aminomethyl-1-methyl-azetidin-3-yl)-8-(2-fluoro-phenyl)-4,5-dihydro-1H-pyrrolo[2,3-f]isoquinoline-3-carboxylic acid lactam] is 347 nM.
Turning to `CC(C)Oc1ccc(-c2cc3c(cn2)CCc2c-3[nH]c3c2C(=O)NCC32CN(C)C2)cn1` [Example 185, 2-(3-Aminomethyl-1-methyl-azetidin-3-yl)-8-(6-isopropoxy-pyridin-3-yl)-4,5-dihydro-1H-pyrrolo[2,3-f]isoquinoline-3-carboxylic acid lactam hydrochloride], 134 nM corresponded to half-maximal inhibition (IC50).
Still for that read-out and setting: for `O=C1NC2(CC2)C2(CC2)c2[nH]c3c(c21)CCc1cnc(-c2cccc(F)c2)cc1-3` [Example 195, 2-(1′-Amino-bicyclopropyl-1-yl)-8-(3-fluoro-phenyl)-4,5-dihydro-1H-pyrrolo[2,3-f]isoquinoline-3-carboxylic acid lactam] the value was 333 nM; for `COc1ccc(-c2ncc3c(n2)-c2[nH]c4c(c2CC3)C(=O)NCC42CN(C)C2)cc1` [Example 207, 2-(3-Aminomethyl-1-methyl-azetidin-3-yl)-8-(4-methoxy-phenyl)-4,5-dihydro-1H-1,7,9-triaza-cyclopenta[a]naphthalene-3-carboxylic acid lactam], 130 nM.

The target in the next test is human MK2 (Homo sapiens, UniProt P49137). As to the kind of experiment: MAPKAPK2 kinase assay (TR-FRET, Hsp27 peptide substrate).
human MK2, sequence (P49137 whole entry): as above
Details: not given
On the technique in general: Time-resolved FRET reads energy transfer from a long-lived donor to a nearby acceptor.
The molecule `O=C1NC2(CC2)Cc2[nH]c3c(c21)CCc1cnc(-c2ccc(OC4CCOCC4)nc2)cc1-3` [Example 96, 2-(1-Amino-cyclopropylmethyl)-8-[6-(tetrahydro-pyran-4-yloxy)-pyridin-3-yl]-4,5-dihydro-1H-pyrrolo[2,3-f]isoquinoline-3-carboxylic acid lactam] displayed an IC50 of 45 nM.
`O=C1NC2(CCC2)Cc2[nH]c3c(c21)CCc1cnc(-c2ccc(OC4CCOCC4)nc2)cc1-3` [Example 108, 2-(1-Amino-cyclobutylmethyl)-8-[6-(tetrahydro-pyran-4-yloxy)-pyridin-3-yl]-4,5-dihydro-1H-pyrrolo[2,3-f]isoquinoline-3-carboxylic acid lactam] yielded an IC50 of 49 nM.
Regarding `O=C1NC2(CCC2)Cc2[nH]c3c(c21)CCc1cnc(-c2cncc(OC4CCOCC4)c2)cc1-3` [Example 109, 2-(1-Amino-cyclobutylmethyl)-8-[5-(tetrahydro-pyran-4-yloxy)-pyridin-3-yl]-4,5-dihydro-1H-pyrrolo[2,3-f]isoquinoline-3-carboxylic acid lactam], the midpoint of inhibition, the IC50, lay at 42 nM.
For the molecule `O=C1NC2(CCC2)Cc2[nH]c3c(c21)CCc1cnc(-c2ccc(CN4CCOCC4)c(F)c2)cc1-3` [Example 110, 2-(1-Amino-cyclobutylmethyl)-8-(3-fluoro-4-morpholin-4-ylmethyl-phenyl)-4,5-dihydro-1H-pyrrolo[2,3-f]isoquinoline-3-carboxylic acid lactam], the IC50 was determined as 84 nM.
Take `O=C1NCC2(CNC2)c2[nH]c3c(c21)CCc1cnc(-c2ccc(C(F)(F)F)nc2)cc1-3` [Example 166, 2-(3-Aminomethyl-azetidin-3-yl)-8-(6-trifluoromethyl-pyridin-3-yl)-4,5-dihydro-1H-pyrrolo[2,3-f]isoquinoline-3-carboxylic acid lactam hydrochloride]: inhibition was half-maximal at 7 nM (IC50).
The molecule `CN1CC2(CNC(=O)c3c2[nH]c2c3CCc3cnc(-c4ccc(C(F)(F)F)nc4)cc3-2)C1` [Example 168, 2-(3-Aminomethyl-1-methyl-azetidin-3-yl)-8-(6-trifluoromethyl-pyridin-3-yl)-4,5-dihydro-1H-pyrrolo[2,3-f]isoquinoline-3-carboxylic acid lactam] showed an IC50 of 14 nM.
On the same count and under the same terms, the figure for `Cn1c2c(c3c1C1(CNC1)CNC3=O)CCc1cnc(-c3ccc(C(F)(F)F)nc3)cc1-2` [Example 169, 2-(3-Aminomethyl-azetidin-3-yl)-8-(6-trifluoromethyl-pyridin-3-yl)-1-methyl-4,5-dihydro-1H-pyrrolo[2,3-f]isoquinoline-3-carboxylic acid lactam hydrochloride] is 93 nM.
Still for that read-out and setting: the figure for `COCc1ccc(CNC(=O)c2cccc(-c3cc4c(cn3)CCc3c-4[nH]c4c3C(=O)NC3(CC3)C4)c2)cc1` [Example 273] is 19 nM; for `COc1ccc(CNC(=O)c2cccc(-c3cc4c(cn3)CCc3c-4[nH]c4c3C(=O)NC3(CC3)C4)c2)cn1` [Example 274] it is 16 nM.
As to `C[C@H](NC(=O)c1cccc(-c2cc3c(cn2)CCc2c-3[nH]c3c2C(=O)NC2(CC2)C3)c1)c1ccccc1` [Example 275], the midpoint of inhibition, the IC50, lay at 20 nM.
In the case of `O=C(NCc1ccccc1)c1cccc(-c2cc3c(cn2)CCc2c-3[nH]c3c2C(=O)NC2(CC2)C3)c1` [Example 276, 2-(1-Amino-cyclopropylmethyl)-8-(3-benzylcarbamoyl)-phenyl-4,5-dihydro-1H-pyrrolo[2,3-f]isoquinoline-3-carboxylic acid lactam], the IC50 was 11 nM.
Still for that read-out and setting: the figure for `N#Cc1cc(-c2cc3c(cn2)CCc2c-3[nH]c3c2C(=O)NCC32CC2)ccc1OCCN1CCOCC1` [Example 305, 2-(2-Morpholin-4-yl-ethoxy)-5-(7-oxo-10-spirocyclopropyl-6,7,8,9,10,11-hexahydro-5H-3,8,11-triaza-benzo[a]fluoren-2-yl)-benzonitrile] is 12 nM; for `CN1CCN(c2ccc(-c3cc4c(cn3)CCc3c-4[nH]c4c3C(=O)NCC43CC3)cc2C#N)CC1` [Example 306, 2-(4-Methyl-piperazin-1-yl)-5-(7-oxo-10-spirocyclopropyl-6,7,8,9,10,11-hexahydro-5H-3,8,11-triaza-benzo[a]fluoren-2-yl)-benzonitrile] it is 9 nM; for `N#Cc1cc(-c2cc3c(cn2)CCc2c-3[nH]c3c2C(=O)NCC32CC2)ccc1N1CCOCC1` [Example 307, 2-Morpholin-4-yl-5-(7-oxo-10-spirocyclopropyl-6,7,8,9,10,11-hexahydro-5H-3,8,11-triaza-benzo[a]fluoren-2-yl)-benzonitrile] it is 14 nM.
The molecule `CN(C)CCOc1ccc(-c2cc3c(cn2)CCc2c-3[nH]c3c2C(=O)NCC32CC2)cc1C#N` [Example 308, 2-(2-Dimethylamino-ethoxy)-5-(7-oxo-10-spirocyclopropyl-6,7,8,9,10,11-hexahydro-5H-3,8,11-triaza-benzo[a]fluoren-2-yl)-benzonitrile] came in with an IC50 of 15 nM.
The same measure, in the same setting: for `COCCOc1ccc(-c2cc3c(cn2)CCc2c-3[nH]c3c2C(=O)NCC32CC2)cc1C#N` [Example 309, 2-(2-Methoxy-ethoxy)-5-(7-oxo-10-spirocyclopropyl-6,7,8,9,10,11-hexahydro-5H-3,8,11-triaza-benzo[a]fluoren-2-yl)-benzonitrile] the value was 20 nM; for `COCCOc1cc(-c2cc3c(cn2)CCc2c-3[nH]c3c2C(=O)NCC32CC2)ccc1F` [Example 310, 2-[4-Fluoro-3-(2-methoxy-ethoxy)-phenyl]-10-spirocyclopropyl-5,6,8,9,10,11-hexahydro-3,8,11-triaza-benzo[a]fluoren-7-one], 97 nM.
Same read-out and setting: for `CN(C)CCOc1cc(-c2cc3c(cn2)CCc2c-3[nH]c3c2C(=O)NCC32CC2)ccc1F` [Example 311, 2-[3-(2-Dimethylamino-ethoxy)-4-fluoro-phenyl]-10-spirocyclopropyl-5,6,8,9,10,11-hexahydro-3,8,11-triaza-benzo[a]fluoren-7-one] the value was 27 nM; for `N#Cc1cc(-c2cc3c(cn2)CCc2c-3[nH]c3c2C(=O)NCC32CC2)ccc1N1CCC(O)C1` (centres unmarked) [Example 312, 2-(3-Hydroxy-pyrrolidin-1-yl)-10-spirocyclopropyl-5-(7-oxo-6,7,8,9,10,11-hexahydro-5H-3,8,11-triaza-benzo[a]fluoren-2-yl)-benzonitrile], 15 nM.
